Consider 12 molecules from ChEMBL document CHEMBL3045600, “Synthesis and Fungicidal Activities of Phenoxyphenyl Alkoxyiminoacetamide Derivatives” (J Pestic Sci, 1998).

Common to all, as to assay type: functional
In test [1] the test system is Thanatephorus cucumeris. Briefly: Fungicidal activity against Thanatephorus cucumeris assessed as rice sheath blight disease control at 125 ppm foliar application for 24 hr before inoculation at 26 +- 2 measured after 5 days by preventive manner.
For test [2], the system named is Podosphaera fuliginea. Briefly: Fungicidal activity against Podosphaera fuliginea assessed as cucumber powdery mildew control under greenhouse at 125 ppm foliar application 24 hr before inoculation on upper surface of leaf at 23 +/- 2 degC by preventive manner.
Test [3] has as its system Pyricularia oryzae. Briefly: Fungicidal activity against Magnaporthe oryzae assessed as rice blast disease control at 10 ppm submerged application measured after 7 days.
Test [4] has as its system Podosphaera fuliginea. Briefly: Fungicidal activity against Podosphaera fuliginea assessed as cucumber powdery mildew control under greenhouse at 2 ppm foliar application 24 hr after inoculation on upper surface of leaf at 23 +/- 2 degC by curative manner.
Test [5] deals with Pyricularia oryzae. The experiment in a line: Fungicidal activity against Magnaporthe oryzae assessed as rice blast disease control at 2.5 ppm submerged application measured after 7 days.
Test [6] deals with Podosphaera fuliginea. The experiment in a line: Fungicidal activity against Podosphaera fuliginea assessed as cucumber powdery mildew control under greenhouse at 31.3 ppm foliar application 24 hr before inoculation on upper surface of leaf at 23 +/- 2 degC by preventive manner.
The subject of test [7] is Podosphaera fuliginea. The experiment in a line: Fungicidal activity against Podosphaera fuliginea assessed as cucumber powdery mildew control under greenhouse at 31.3 ppm foliar application 24 hr after inoculation on upper surface of leaf at 23 +/- 2 degC by curative manner.
The subject of test [8] is Thanatephorus cucumeris. The experiment in a line: Fungicidal activity against Thanatephorus cucumeris assessed as rice sheath blight disease control at 2 ppm foliar application for 24 hr before inoculation at 26 +- 2 measured after 5 days by preventive manner.
The subject of test [9] is Pyricularia oryzae. Briefly: Fungicidal activity against Magnaporthe oryzae assessed as rice blast disease control at 0.16 ppm submerged application measured after 7 days.
Test [10] deals with Podosphaera fuliginea. Briefly: Fungicidal activity against Podosphaera fuliginea assessed as cucumber powdery mildew control under greenhouse at 7.8 ppm foliar application 24 hr after inoculation on upper surface of leaf at 23 +/- 2 degC by curative manner.
Test [11] deals with Pseudoperonospora cubensis. Briefly: Fungicidal activity against Pseudoperonospora cubensis assessed as cucumber downy mildew disease control at 7.8 ppm foliar application 24 hr before inoculation on upper surface of leaf by preventive manner.
Test [12] deals with Pseudoperonospora cubensis. The experiment in a line: Fungicidal activity against Pseudoperonospora cubensis assessed as cucumber downy mildew disease control at 125 ppm foliar application 24 hr before inoculation on upper surface of leaf by preventive manner.
The test system of test [13] is Podosphaera fuliginea. Briefly: Fungicidal activity against Podosphaera fuliginea assessed as cucumber powdery mildew control under greenhouse at 7.8 ppm foliar application 24 hr before inoculation on upper surface of leaf at 23 +/- 2 degC by preventive manner.
Test [14] relates to Pyricularia oryzae. The experiment in a line: Fungicidal activity against Magnaporthe oryzae assessed as rice blast disease control at 0.63 ppm submerged application measured after 7 days.
For test [15], the system named is Thanatephorus cucumeris. The experiment in a line: Fungicidal activity against Thanatephorus cucumeris assessed as rice sheath blight disease control at 7.8 ppm foliar application for 24 hr before inoculation at 26 +- 2 measured after 5 days by preventive manner.
Test [16] has as its system Podosphaera fuliginea. The experiment in a line: Fungicidal activity against Podosphaera fuliginea assessed as cucumber powdery mildew control under greenhouse at 125 ppm foliar application 24 hr after inoculation on upper surface of leaf at 23 +/- 2 degC by curative manner.
For test [17], the system named is Pseudoperonospora cubensis. Briefly: Fungicidal activity against Pseudoperonospora cubensis assessed as cucumber downy mildew disease control at 31.3 ppm foliar application 24 hr before inoculation on upper surface of leaf by preventive manner.
The test system of test [18] is Pseudoperonospora cubensis. The experiment in a line: Fungicidal activity against Pseudoperonospora cubensis assessed as cucumber downy mildew disease control at 2 ppm foliar application 24 hr before inoculation on upper surface of leaf by preventive manner.
Test [19] concerns Podosphaera fuliginea. Briefly: Fungicidal activity against Podosphaera fuliginea assessed as cucumber powdery mildew control under greenhouse at 2 ppm foliar application 24 hr before inoculation on upper surface of leaf at 23 +/- 2 degC by preventive manner.
In test [20] the test system is Thanatephorus cucumeris. Briefly: Fungicidal activity against Thanatephorus cucumeris assessed as rice sheath blight disease control at 31.3 ppm foliar application for 24 hr before inoculation at 26 +- 2 measured after 5 days by preventive manner.

For the molecule `CNC(=O)/C(=N/OC)c1ccccc1Oc1ccc(C(C)C)cc1C(C)C`, the Activity in the test on Thanatephorus cucumeris [1] came out at 70%; in the test on Podosphaera fuliginea [2], 70%; in the test with Pyricularia oryzae [3], 50%; with Podosphaera fuliginea [4], 50%; in the test with Pyricularia oryzae [5], 50%; in the test on Podosphaera fuliginea [6], 70%. Besides, the Activity is given as 50% in the test on Podosphaera fuliginea [7]; 70% in the test on Thanatephorus cucumeris [8]; 50% in the test with Pyricularia oryzae [9]; 50% in the test on Podosphaera fuliginea [10]; under 70% in test [11]; under 70% in test [12]. For the same molecule, the Activity is on record as 70% in the test on Podosphaera fuliginea [13]; 50% in the test on Pyricularia oryzae [14]; 70% in the test with Thanatephorus cucumeris [15]; 50% in the test on Podosphaera fuliginea [16]; under 70% in test [17]; under 70% in test [18]. Further, the Activity in the test on Podosphaera fuliginea [19] and in the test on Thanatephorus cucumeris [20] was 70% throughout.
Turning to `CNC(=O)/C(=N/OC)c1ccccc1Oc1ccc(Oc2ccccc2)cc1`, the Activity in the test with Thanatephorus cucumeris [1] turned out to be 70%; in the test with Podosphaera fuliginea [2], 70%; in the test with Pyricularia oryzae [3], 50%; with Podosphaera fuliginea [4] it was 50%; with Pyricularia oryzae [5], 50%; in the test with Podosphaera fuliginea [6] it was 70%. Further, the Activity in the test on Podosphaera fuliginea [7] is on record as 50%; in the test on Thanatephorus cucumeris [8], 70%; with Pyricularia oryzae [9] it was 50%; with Podosphaera fuliginea [10], 50%; in test [11], under 70%; in test [12], under 70%. Further, the Activity in the test with Podosphaera fuliginea [13] is on record as 70%; in the test with Pyricularia oryzae [14] it was 50%; with Thanatephorus cucumeris [15], 70%; with Podosphaera fuliginea [16], 50%; in [17], under 70%; in test [18] it was under 70%. Besides, the Activity in the test with Podosphaera fuliginea [19] and in the test on Thanatephorus cucumeris [20] was 70% throughout.
`CNC(=O)/C(=N/OC)c1cccc(Oc2ccccc2)c1`: the Activity in the test with Thanatephorus cucumeris [1] is recorded as 70%; with Podosphaera fuliginea [2], 70%; with Podosphaera fuliginea [6], 70%; with Thanatephorus cucumeris [8], 70%; in [11], under 70%; in test [12] it was under 70%. Further, the Activity in the test with Podosphaera fuliginea [13] is given as 70%; with Thanatephorus cucumeris [15], 70%; in [17], under 70%; in test [18] it was under 70%; in the test with Podosphaera fuliginea [19], 70%; in the test on Thanatephorus cucumeris [20] it was 70%.
As to `CNC(=O)/C(=N/OC)c1ccc(C)cc1Oc1ccccc1`, the Activity (in the test on Thanatephorus cucumeris [1]; with Podosphaera fuliginea [2]; in the test with Podosphaera fuliginea [6]; in the test with Thanatephorus cucumeris [8]; in test [11]; in test [12]) was 70% in each case. The Activity (in the test on Podosphaera fuliginea [13]; with Thanatephorus cucumeris [15]; in [17]; in test [18]; with Podosphaera fuliginea [19]; in the test on Thanatephorus cucumeris [20]) was 70% each time.
Take `CNC(=O)/C(=N/OC)c1cc([N+](=O)[O-])ccc1Oc1ccccc1`: the Activity (in the test on Thanatephorus cucumeris [1]; with Podosphaera fuliginea [2]; with Podosphaera fuliginea [6]; with Thanatephorus cucumeris [8]; in test [11]; in test [12]) was under 70% each time. The Activity (in the test with Podosphaera fuliginea [13]; in the test on Thanatephorus cucumeris [15]; in test [17]; in [18]; in the test on Podosphaera fuliginea [19]; in the test with Thanatephorus cucumeris [20]) was under 70% throughout.
For the molecule `CNC(=O)/C(=N/OC)c1ccccc1SCc1ccccc1`, the Activity (in the test on Thanatephorus cucumeris [1]; with Podosphaera fuliginea [2]; in the test on Podosphaera fuliginea [6]; in the test with Thanatephorus cucumeris [8]; in [11]; in test [12]) was 70% in each case. The Activity (with Podosphaera fuliginea [13]; in the test with Thanatephorus cucumeris [15]; in test [17]; in test [18]; with Podosphaera fuliginea [19]; with Thanatephorus cucumeris [20]) was 70% each time.
As to `CNC(=O)/C(=N/OC)c1ccccc1Sc1ccccc1`, the Activity (in the test on Thanatephorus cucumeris [1]; in the test with Podosphaera fuliginea [2]; in the test with Podosphaera fuliginea [6]; in the test with Thanatephorus cucumeris [8]; in test [11]; in test [12]) was 70% throughout. Also, the Activity (in the test on Podosphaera fuliginea [13]; in the test with Thanatephorus cucumeris [15]; in test [17]; in [18]; in the test on Podosphaera fuliginea [19]; in the test with Thanatephorus cucumeris [20]) was 70% throughout.
Turning to `CNC(=O)/C(=N/OC(C)C)c1ccccc1Oc1ccccc1`, the Activity (in the test with Thanatephorus cucumeris [1]; with Podosphaera fuliginea [2]; in the test on Podosphaera fuliginea [6]; in the test on Thanatephorus cucumeris [8]; in test [11]; in test [12]) was under 70% in each case. Also, the Activity (in the test with Podosphaera fuliginea [13]; in the test on Thanatephorus cucumeris [15]; in test [17]; in [18]; with Podosphaera fuliginea [19]; with Thanatephorus cucumeris [20]) was under 70% throughout.
Take `CNC(=O)/C(=N/OC)c1ccc(Oc2ccccc2)cc1`: the Activity in the test with Thanatephorus cucumeris [1] is under 70%; in the test on Podosphaera fuliginea [2], 70%; in the test with Podosphaera fuliginea [6] it was 70%; with Thanatephorus cucumeris [8], under 70%; in test [11], under 70%; in [12], under 70%. For the same molecule, the Activity in the test with Podosphaera fuliginea [13] is 70%; in the test with Thanatephorus cucumeris [15] it was under 70%; in test [17], under 70%; in test [18] it was under 70%; in the test on Podosphaera fuliginea [19], 70%; in the test on Thanatephorus cucumeris [20] it was under 70%.
On to `CNC(=O)/C(=N/OC)c1cc(F)ccc1Oc1ccccc1`, for which the Activity (with Thanatephorus cucumeris [1]; in the test with Podosphaera fuliginea [2]; in the test on Podosphaera fuliginea [6]; in the test with Thanatephorus cucumeris [8]; in [11]; in test [12]) was 70% throughout. For the same molecule, the Activity (with Podosphaera fuliginea [13]; in the test with Thanatephorus cucumeris [15]; in test [17]; in test [18]; with Podosphaera fuliginea [19]; in the test on Thanatephorus cucumeris [20]) was 70% each time.
On to `CNC(=O)/C(=N/OC)c1ccccc1Oc1cccc(OCC#N)c1`, for which the Activity with Thanatephorus cucumeris [1] was under 70%; in the test with Podosphaera fuliginea [2], 70%; in the test on Pyricularia oryzae [3], under 50%; in the test on Podosphaera fuliginea [4], 50%; in the test on Pyricularia oryzae [5], under 50%; in the test on Podosphaera fuliginea [6] it was 70%. Also, the Activity is recorded as 50% in the test with Podosphaera fuliginea [7]; under 70% in the test with Thanatephorus cucumeris [8]; under 50% in the test on Pyricularia oryzae [9]; 50% in the test on Podosphaera fuliginea [10]; under 70% in [11]; under 70% in test [12]. The Activity is on record as 70% in the test with Podosphaera fuliginea [13]; under 50% in the test on Pyricularia oryzae [14]; under 70% in the test with Thanatephorus cucumeris [15]; 50% in the test on Podosphaera fuliginea [16]; under 70% in test [17]; under 70% in test [18]. The Activity in the test on Podosphaera fuliginea [19] is 70%; with Thanatephorus cucumeris [20], under 70%.
Take `CNC(=O)/C(=N/OC)c1ccccc1Oc1cccc(O)c1`: the Activity in the test on Thanatephorus cucumeris [1] is on record as 70%; in the test with Podosphaera fuliginea [2], under 70%; in the test on Pyricularia oryzae [3] it was 50%; with Pyricularia oryzae [5], 50%; with Podosphaera fuliginea [6], under 70%; in the test on Thanatephorus cucumeris [8], 70%. Also, the Activity with Pyricularia oryzae [9] is reported as 50%; in test [11] it was under 70%; in [12] it was under 70%; in the test with Podosphaera fuliginea [13] it was under 70%; in the test on Pyricularia oryzae [14], 50%; in the test on Thanatephorus cucumeris [15], 70%. Also, the Activity is reported as under 70% in test [17], under 70% in [18], under 70% in the test on Podosphaera fuliginea [19] and 70% in the test with Thanatephorus cucumeris [20].
